# Measured values taken from PMC6853638, “TMC1 is an essential component of a leak channel that modulates tonotopy and excitability of auditory hair cells in mice” (eLife, 2019).
# Residue numbers refer to the chain shown, from its start. Values joined by “and” are separate entries in the source; they are usually repeats but may differ in a detail not shown here. Equal values may be shown once.
# What was measured:
# [1] = biological target: T1, cysteine-substituted TMC1 constructs (Mus musculus, UniProt Q8R4P5, T532C); test: Background current before and after MTSET treatment in Tmc1-knockout OHCs expressing cysteine-substituted TMC1; format: cell-based; conditions: Tmc1-knockout OHCs expressing TMC1-T532C, individual cells
# T1 construct: control full-length TMC1 (TMC1_WT); expressed in transfected cells; host or cells: Tmc1-knockout mouse OHCs, injectoporation
# T1 sequence (Q8R4P5 1-757 T532C): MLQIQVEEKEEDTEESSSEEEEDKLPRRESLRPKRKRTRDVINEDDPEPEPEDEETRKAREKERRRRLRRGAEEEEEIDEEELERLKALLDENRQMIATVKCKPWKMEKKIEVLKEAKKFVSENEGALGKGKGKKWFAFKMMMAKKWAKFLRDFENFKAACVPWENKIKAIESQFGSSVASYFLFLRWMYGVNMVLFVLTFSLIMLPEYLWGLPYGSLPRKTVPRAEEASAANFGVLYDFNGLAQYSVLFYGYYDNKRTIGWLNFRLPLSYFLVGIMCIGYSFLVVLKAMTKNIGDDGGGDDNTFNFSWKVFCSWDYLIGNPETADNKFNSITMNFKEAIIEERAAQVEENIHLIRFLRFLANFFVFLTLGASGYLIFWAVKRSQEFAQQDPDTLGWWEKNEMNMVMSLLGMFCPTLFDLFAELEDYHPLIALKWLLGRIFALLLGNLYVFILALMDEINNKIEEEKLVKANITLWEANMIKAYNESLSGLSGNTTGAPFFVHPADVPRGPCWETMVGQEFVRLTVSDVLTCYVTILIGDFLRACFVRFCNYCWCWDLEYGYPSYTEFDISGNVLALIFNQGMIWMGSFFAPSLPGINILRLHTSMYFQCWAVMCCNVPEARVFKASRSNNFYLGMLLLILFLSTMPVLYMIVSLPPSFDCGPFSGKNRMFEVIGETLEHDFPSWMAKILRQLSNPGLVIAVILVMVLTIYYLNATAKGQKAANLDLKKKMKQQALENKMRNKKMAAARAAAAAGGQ
# Method: (§1) Mouse Tmc1 and Tmc2 cDNAs were cloned into CMV-Script and pCDNA3.1- vectors, respectively. To obtain the Tmc1-deafness vector and amino-acid-substituted Tmc1 constructs, specific primers were designed and used for PCR (Supplementary File 1). […] In brief, the organ of Corti was isolated from P3 mice and cut into three pieces in Dulbecco’s modified Eagle’s medium/F12 with 1.5 μg/ml ampicillin. For electroporation, a glass pipette (2 μm tip diameter) was used to deliver cDNA plasmids (0.2 μg/μl in 1 × Hanks' balanced salt solution) to hair cells in the sensory epithelium. EGFP was used as an indicator for the selection of transfected hair cells. A series of three pulses at 60 V lasting 15 ms at 1 s intervals was applied to cochlear tissues by an electroporator (ECM Gemini X2, BTX, CA). The cochlear tissues were cultured for 1 day in vitro and then used for electrophysiological recording.
# (§2) All experiments were performed at room temperature (20–25°C). Briefly, the basilar membrane with hair cells was acutely dissected from neonatal mice. […] The acutely isolated or cultured basilar membrane was used for electrophysiological recording within 1 h. […] Hair cells were recorded with a patch-clamp amplifier (EPC 10 USB and Patchmaster software, HEKA Elektronik, Lambrecht/Pfalz, Germany).
# (§3) The sampling rate was 1 kHz for leak current recording, 50 kHz for the IV protocol and current-clamp recording, and 100 kHz for unitary channel recording. The voltage-clamp used a –70 mV holding potential, and the current-clamp was held at 0 pA. Only recordings with a current baseline <20 pA in NMDG solution were used for statistical analysis.
# [2] = biological target: T2, cysteine-substituted TMC1 constructs (Mus musculus, UniProt Q8R4P5, G411C); test: as above; format: cell-based; conditions: Tmc1-knockout OHCs expressing TMC1-G411C, individual cells
# T2 construct: control full-length TMC1 (TMC1_WT); expressed in transfected cells; host or cells: Tmc1-knockout mouse OHCs, injectoporation
# T2 sequence (Q8R4P5 1-757 G411C): T1 sequence (Q8R4P5 1-757 T532C) with G411C, C532T
# Method: as §1, §2, §3
structure (smiles),measurement,setting,value
"C[N+](C)(C)CCSS(C)(=O)=O.[Br-] [MTSET, 2-(trimethylammonium)ethyl methanethiosulfonate, bromide]",amplitude of the background current after MTSET treatment,[1],-61.9555 and -32.5794 and -12.1284 and -34.0535 and -31.604
same,amplitude of the background current after MTSET treatment,[2],-17.5539 and -22.5978 and -20.1413 and -23.0553 and -21.6542
